Here are results for two compounds from ChEMBL document CHEMBL2074162, “P-glycoprotein-mediated transcellular transport of MDR-reversing agents” (FEBS Lett, 1993).

The target of this series is ATP-dependent translocase ABCB1 (Homo sapiens, UniProt P08183). In words: TP_TRANSPORTER: transepithelial transport (basal to apical) in MDR1-expressing LLC-PK1 cells. It is filed as functional, cell-based. To be noted: pig.
Sequence of ATP-dependent translocase ABCB1 (P08183 whole entry): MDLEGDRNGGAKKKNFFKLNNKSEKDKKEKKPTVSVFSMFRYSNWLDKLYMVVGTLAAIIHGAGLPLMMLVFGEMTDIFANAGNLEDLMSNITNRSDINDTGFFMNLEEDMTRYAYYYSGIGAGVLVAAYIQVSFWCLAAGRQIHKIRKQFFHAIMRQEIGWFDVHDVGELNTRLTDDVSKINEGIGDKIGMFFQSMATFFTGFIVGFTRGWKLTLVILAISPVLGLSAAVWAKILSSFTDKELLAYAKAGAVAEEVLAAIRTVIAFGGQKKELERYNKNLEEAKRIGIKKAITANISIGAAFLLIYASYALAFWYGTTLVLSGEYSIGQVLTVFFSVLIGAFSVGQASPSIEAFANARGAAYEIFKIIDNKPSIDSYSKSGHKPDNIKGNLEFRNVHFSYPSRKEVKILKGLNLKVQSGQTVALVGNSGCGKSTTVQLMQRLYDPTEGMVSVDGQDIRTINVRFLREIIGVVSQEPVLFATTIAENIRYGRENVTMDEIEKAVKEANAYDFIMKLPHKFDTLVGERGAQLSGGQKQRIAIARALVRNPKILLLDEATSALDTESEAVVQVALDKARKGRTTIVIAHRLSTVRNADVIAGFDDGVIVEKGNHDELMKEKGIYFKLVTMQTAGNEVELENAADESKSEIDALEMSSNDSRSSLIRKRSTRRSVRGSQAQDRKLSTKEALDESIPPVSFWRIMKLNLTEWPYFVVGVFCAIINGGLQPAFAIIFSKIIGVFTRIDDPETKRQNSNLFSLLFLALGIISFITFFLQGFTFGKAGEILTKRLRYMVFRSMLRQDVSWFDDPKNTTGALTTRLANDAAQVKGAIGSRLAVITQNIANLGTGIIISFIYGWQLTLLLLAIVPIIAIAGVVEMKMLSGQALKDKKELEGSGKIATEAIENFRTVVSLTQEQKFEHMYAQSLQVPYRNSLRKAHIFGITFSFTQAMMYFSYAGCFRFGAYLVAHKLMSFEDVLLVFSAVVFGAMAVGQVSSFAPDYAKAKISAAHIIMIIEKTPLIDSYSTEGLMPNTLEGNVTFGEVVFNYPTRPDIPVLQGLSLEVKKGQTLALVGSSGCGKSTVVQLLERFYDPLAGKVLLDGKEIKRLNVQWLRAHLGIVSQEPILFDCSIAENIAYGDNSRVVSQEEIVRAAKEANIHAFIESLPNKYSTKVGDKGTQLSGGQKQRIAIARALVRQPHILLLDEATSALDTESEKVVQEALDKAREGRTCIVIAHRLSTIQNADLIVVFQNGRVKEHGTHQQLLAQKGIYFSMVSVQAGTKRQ

Turning to `COc1ccc([C@@H]2Sc3ccccc3N(CCN(C)C)C(=O)[C@@H]2OC(C)=O)cc1` [DILTIAZEM], the Activity entry was “substrate [+]”.
Consider `CCOC(=O)C1=C(C)NC(C)=C(C(=O)OCCNC(=O)c2ccc(N=[N+]=[N-])cc2)C1c1ccccc1C(F)(F)F` (configuration not stated) [AZIDOPINE], for which the Activity entry was “substrate [+]”.
